Reference: publication PMC8773213, “In Vitro Anticancer Activity and Mechanism of Action of an Aziridinyl Galactopyranoside” (Biomedicines, 2021)

How the values were obtained:
[1] = tested on: UV5 cells (mutated in ERCC2 (XPD), NER deficient); assay: MTT cell viability assay, UV5 cells; type: cell-based, Chinese hamster; conditions: Cricetulus griseus, 24 h exposure, then 48 h in drug-free medium, read-out: IC50 (means ± SEM), UV5 cells
Protocol: (§1) Exponentially growing cells were seeded in 96-well plates and allowed to attach and grow for 24 h. The cells were then treated with increasing concentrations of the tested drugs. At the end of the treatment period, cell viability was measured with the MTT assay or the resazurin assay, two widely used techniques.
(§2) In the case of the MTT assay, this technique detects viable cells using the ability of these cells to reduce the yellow tetrazolium MTT to an insoluble colored formazan product. Subsequently, this product was solubilized and analyzed by spectrophotometry. Dead cells cannot reduce the MTT into the colored formazan product. Briefly, 24 h after plating, cells were treated with the tested compounds for 48 h; except in experiments with DNA repair-proficient and -deficient cell lines, in which cells were only exposed for 24 h to drugs and allowed to grow for an additional 48 h in drug-free medium to allow them to repair possible DNA damage induced by the tested drugs. […] Finally, plates were incubated overnight at 37 °C and optical densities were measured at 540 nm using an absorbance spectrophotometer microplate reader.
(§3) In both assays, cell viability was expressed as percentage compared to untreated cells. Results were expressed as the means ± standard error of the mean (SEM). […]

UV4 and AA8 cells = assay: Clonogenic survival assay; type: cell-based, Chinese hamster; conditions: 10 µM, 24 h, then colonies in drug-free medium
Protocol: Cell survival after treatment was determined by clonogenic assay. AA8 and UV4 cells were seeded in 6 cm Petri dishes 4 h prior to treatment for 24 h. After that, drugs were removed and cells were allowed to form colonies for eight days. The colonies were then stained with 0.4% methylene blue in methanol for 15 min. Surviving colonies made up of more than 50 cells per colony were counted. Results were represented as percentage of survival referred to untreated cells.

A549 cells [2] = type: cell-based; conditions: A549, 48 h, antioxidant added 1 h before; MTT
Protocol: as §1
In the case of the MTT assay, this technique detects viable cells using the ability of these cells to reduce the yellow tetrazolium MTT to an insoluble colored formazan product. Subsequently, this product was solubilized and analyzed by spectrophotometry. Dead cells cannot reduce the MTT into the colored formazan product. Briefly, 24 h after plating, cells were treated with the tested compounds for 48 h; except in experiments with DNA repair-proficient and -deficient cell lines, in which cells were only exposed for 24 h to drugs and allowed to grow for an additional 48 h in drug-free medium to allow them to repair possible DNA damage induced by the tested drugs. After the treatment period, the medium was removed, the cells were washed once with PBS and 125 μL MTT (1 mg/mL in medium) was added to each well. Plates were incubated for 2–4 h and then 80 μL 20% SDS in 0.02 M HCl was added to each well. Finally, plates were incubated overnight at 37 °C and optical densities were measured at 540 nm using an absorbance spectrophotometer microplate reader.
(§4) In both assays, cell viability was expressed as percentage compared to untreated cells. Results were expressed as the means ± standard error of the mean (SEM). All data are from at least three independent experiments.

A549 cells [3] = assay: Glycolysis inhibition (glucose consumed, lactate produced); type: cell-based, human; conditions: A549, 8 h
Protocol: Inhibition of glycolysis was determined by measuring glucose consumed (initial product of glycolysis) and lactate produced (final product of glycolysis) in untreated and treated cells. Cells were seeded in 6-well plates at a density of 10^6 cells/well and were allowed to attach for a few hours before treatment with the tested compounds for 8 h. After treatment, medium was recollected and glucose and lactate concentrations were determined using the Accutrend® Plus analyzer together with Accutrend glucose strips and BM-Lactate strips (Roche Diagnostics, Barcelona, Spain). After calibrating the instrument with glucose and lactate calibration strips, test strips were used to determine glucose and lactate levels through colorimetric oxidase mediator reactions according to the manufacturer’s instructions. The results are expressed as percentage of glucose consumption and percentage of lactate production in relation to untreated cells. Data were averaged from two independent experiments and shown as mean ± SEM.

A549 lung cancer cells = assay: MTT cytotoxicity of combinations, A549; type: cell-based; conditions: 48 h
Protocol: as §1, §2, §3

MRC-5 lung normal cells = assay: MTT cytotoxicity of combinations, MRC-5; type: cell-based; conditions: 48 h
Protocol: as §1, §2, §3

[4] = tested on: HepG2 (Human hepatocellular carcinoma cells); assay: Resazurin cell viability assay, HepG2; type: cell-based; conditions: 72 h, read-out: IC50 (Mean ± SEM, µM), HepG2
Protocol: as §1
(§5) The resazurin assay is a redox-based colorimetric/fluorometric technique based on the ability of viable cells to reduce the blue compound resazurin into the pink, fluorescent and soluble product resorufin. The amount of resorufin produced is generally proportional to the number of living cells. In this assay, 24 h after seeding, cells were exposed to the tested drugs for 72 h. Then 100 μL resazurin in medium was added to each well (final concentration of 10 μg/mL) and, one hour later the fluorescence intensity was measured at 530/590 nm (excitation/emission) using a fluorescence microplate reader.
as §4

[5] = tested on: NB4 (Human acute promyelocytic leukemia cells); assay: Resazurin cell viability assay, NB4; type: cell-based; conditions: 72 h, read-out: IC50 (Mean ± SEM, µM), NB4
Protocol: as §1, §5, §4

[6] = tested on: PC3 (Human prostate cancer cells); assay: Resazurin cell viability assay, PC3; type: cell-based; conditions: 72 h, read-out: IC50 (Mean ± SEM, µM), PC3
Protocol: as §1, §5, §4

[7] = tested on: SW480 (Human colon adenocarcinoma cells); assay: Resazurin cell viability assay, SW480; type: cell-based; conditions: 72 h, read-out: IC50 (Mean ± SEM, µM), SW480
Protocol: as §1, §5, §4

[8] = tested on: BJ-RASV12 (HRASV12-transformed BJ-SV40T cells); assay: Resazurin cell viability assay, BJ-RASV12; type: cell-based, human; conditions: 72 h
Protocol: as §1, §5, §4

[9] = tested on: cancer cell lines versus MRC-5 and VH10 normal cell lines; assay: Resazurin assay, panel of cancer cells versus normal cells; type: cell-based, human
Protocol: as §1, §5, §4
Next, we evaluated the cytotoxic activity of AzGalp in cancer cell lines derived from solid tumors (HeLa, PC3, U2OS, HepG2 and SW480) and from hematological malignancies (NB4 and HL-60). To study the selectivity against cancer cells, MRC-5 and VH10 cells were used as normal cell lines; 5-FU was used as a positive control. All cells were treated with AzGalp or 5-FU for 72 h and cell viability was evaluated with the resazurin assay. This assay was used to determine cell viability instead of the MTT assay because the HL60 and NB4 cell lines grow in suspension. […] Leukemia cell lines were approximately 15 times more sensitive than normal cells to the cytotoxicity of our aziridine.

[10] = tested on: A549 human lung cancer cell line and MRC-5 human lung normal cell line; set-up: method as in PMID 24177365; conditions: MTT assay; cited from earlier work
[11] = 100 μM AzGalp + 10 μM oxaliplatin

With `Cc1ccc(S(=O)(=O)N2CC2(C)CO[C@@H]2O[C@@H]3CO[C@H](c4ccccc4)O[C@@H]3[C@H](OCc3ccccc3)[C@H]2OCc2ccccc2)cc1` (stereo partly drawn) [AzGalp, 2-methyl-2,3-[N-(4-methylbenzenesulfonyl)imino]propyl 2,3-di-O-benzyl-4,6-O-(S)-benzylidene-β-D-galactopyranoside] as the compound, how does the IC50 [1] read?
Its IC50 is 38.6 ± 6.3 µM.

And the “Cell survival, UV4 versus AA8 (clonogenic assay)” value (UV4 and AA8 cells)?
The value was “UV4 cells were more sensitive”.

And the “Effect of MnTMPyP on cytotoxicity” value (A549 cells [2])?
Its value is “Neither MnTMPyP nor catalase prevented the cytotoxicity”.

And the “Effect of NAC on cytotoxicity” value (A549 cells [2])?
The value was “slightly prevented cytotoxic activity, it was not statistically significant”.

What about the “Effect of catalase on cytotoxicity” value (A549 cells [2]) of the same compound?
The value was “Neither MnTMPyP nor catalase prevented the cytotoxicity”.

And the “Glycolytic activity (glucose consumption and lactate production)” value (A549 cells [3])?
The value was “did not affect the glycolytic activity”.

And the “Cytotoxicity of combination with 5-FU, cancer cells” value (A549 lung cancer cells; 100 μM AzGalp + 10 μM 5-FU)?
Its value is “killed more cancer cells than when these drugs were administered individually”.

And the “Cytotoxicity of combination with oxaliplatin, cancer cells” value (A549 lung cancer cells; [11])?
Its value is “killed more cancer cells than when these drugs were administered individually”.

What about the “Cytotoxicity of combination with 5-FU, normal cells” value (MRC-5 lung normal cells; 100 μM AzGalp + 10 μM 5-FU) of the same compound?
The value was “did not increase cytotoxicity against normal cells”.

What about the “Cytotoxicity of combination with oxaliplatin, normal cells” value (MRC-5 lung normal cells; [11]) of the same compound?
The value was “did not increase cytotoxicity against normal cells”.

And the IC50 [4]?
The IC50 was 122 ± 12.4 µM.

What about the IC50 [5] of the same compound?
The IC50 was 21.4 ± 9.9 µM.

And the IC50 [6]?
Its IC50 is 401 ± 14.8 µM.

What about the IC50 [7] of the same compound?
The IC50 was 388 ± 30.9 µM.

And the “Sensitivity of BJ-RASV12 malignant cells relative to BJ-hTERT non-malignant cells” value ([8]; resazurin)?
The value was “three times more sensitive”.

What about the IC50 ([8]; Homo sapiens, resazurin assay, read-out: IC50 (Mean ± SEM, µM), BJ-RASV12) of the same compound?
The IC50 was 76.3 ± 17.8 µM.

What about the “Viability of leukemia cells” value ([9]; HL60 and NB4, concentrations between 10 and 100 µM, 72 h) of the same compound?
The value was 5%.

What about the “Viability of normal cells” value ([9]; MRC-5 and VH10, concentrations between 10 and 100 µM, 72 h) of the same compound?
The value was “did not alter the viability of normal cells”.

And the “Sensitivity of leukemia cell lines relative to normal cells” value ([9]; NB4 and HL-60 versus MRC-5 and VH10, 72 h)?
The value was “approximately 15 times”.

What about the “Cytotoxicity against HepG2 and U2OS relative to normal cell lines” value ([9]; versus MRC-5 and VH10, 72 h) of the same compound?
The value was “approximately 2.5 times”.

What about the “Cytotoxicity against A549 lung cancer cells relative to MRC-5 lung normal cells” value [10] of the same compound?
The value was “approximately six times more cytotoxic”.
